Experimental data taken from a melting point compilation (Tetko et al.; mined from patent text by program, amines drawn as free bases though some values may be those of a salt).

Row | SMILES | melting point [°C]
1 | CN(CCc1ccccc1)C(=O)Cn1cc(CCC(=O)O)c2cc(OCc3ccccc3)ccc21 | 122 to 125
2 | COc1ncnc(N2CCc3ccccc3CC2)c1[N+](=O)[O-] | 147 to 150
3 | CS(=O)(=O)Nc1ccc2ccccc2c1-c1c(P(=O)(c2ccccc2)c2ccccc2)ccc2ccccc12 | 282
4 | O=C(O)CSCc1cccc(NC(=O)c2cc(-c3ccccc3)oc2C(F)(F)F)c1 | 178 to 182
5 | CCc1ccc2oc(C(=O)Nc3ccc(-c4ccc(S(=O)(=O)NC(C(=O)OC)C(C)C)cc4)cc3)c(C)c2c1OCc1ccccc1 (stereo unspecified) | 191 to 193
6 | CNC(=O)Oc1ccc(NC=O)c2c1CCCC2 | 165 to 166
7 | O=[N+]([O-])c1ccc(Cl)c(C(=S)Nc2ccc(Oc3ncc(C(F)(F)F)cc3Cl)cc2)c1 | 186 to 187
8 | C=CCOCc1csc2c(=O)c(C(=O)NCc3ccc(Cl)cc3)cn(C)c12 | 156 to 158
9 | CC(=O)CCc1ccc2c(c1)COc1ccc(OCc3ccc4cc(F)c(Cl)cc4n3)cc1C2SCCC(=O)O (stereo unspecified) | 115 to 118
10 | CCN(CC)c1ccc(C2(N(c3ccccc3)c3ccc(NC(C)=O)cc3)OC(=O)c3ccccc32)c(C)c1 (stereo unspecified) | 169 to 171
11 | Cc1ccc(-c2ccc3c(c2)C=C(C(=O)Nc2ccc(CS(=O)Cc4ccccc4)cc2)CCO3)cc1 (stereo unspecified) | 208 to 209
12 | COc1ccc(Cn2nc(-c3cccc(Cl)c3)c3ncccc3c2=O)cn1 | 145
13 | Nc1ccc(S(=O)(=O)c2cc(C3=CCCCC3)nc(N3CCCC3)c2)cc1 | 237 to 238
14 | CCCCCCCCCCCCCCc1ccc(OCC2COC(C)(C)O2)c(CC)c1 (stereo unspecified) | 34 to 38
15 | O=c1c(Cc2ccncc2)c(-c2ccc(Br)cc2)[nH]c2ccccc12 | 232 to 234
16 | Cc1cc(-c2cc(C(F)(F)F)n3ncc(C(=O)Nc4cccc(S(=O)(=O)N5CCOCC5)c4)c3n2)ccc1Cl | 251
17 | Cc1cc(C(N)=O)ncc1C(c1c(F)ccc(F)c1F)S(=O)(=O)CCC(C)(C)C (stereo unspecified) | 143 to 144
18 | O=C(CO)Nc1ccc(O)cc1 | 141 to 143
19 | COc1ccc(NC(=O)C(=O)N2CCC(Cc3ccc(F)cc3)CC2)cc1 | 105 to 107
20 | CC1(C=C(F)F)CN(C(=O)Nc2ccc(OC(F)(F)F)cc2)N=C1c1ccc(Cl)cc1 (stereo unspecified) | 142 to 148
21 | O=C(CN1CCC(CCc2ccccc2)CC1)Nc1ccc2c(c1)OCC(=O)N2 | 200 to 203
22 | CC(=O)C1(c2ccccc2)CCN(C(=O)OC(C)(C)C)CC1 | 91 to 92
23 | Cn1c(N)nc2cc(CN3CCN(C(c4ccccc4)c4ccccc4)CC3)ccc21 | 268

Row | SMILES | melting point [°C]
24 | OCc1cc2c(Oc3ccc(Cl)cc3)cncc2s1 | 90 to 91
25 | Cc1sc2c(c1C)C(C1CCCCC1)=NCC(=O)N2 | 205
26 | CC(C)(Cc1ccc(Cl)cc1Cl)C(O)(Cn1cncn1)Cn1cncn1 | 126
27 | CCCCCCCOc1ccc(C(=O)CCC(=O)OCC)cc1 | 39.7 to 40.1
28 | O=C1N(Cc2cccnc2)c2ccccc2C12COc1ccc3nonc3c12 (stereo unspecified) | 230 to 232
29 | O=C(Nc1ccc(O)cc1)OCc1ccccc1 | 153 to 154
30 | Cc1ccccc1-c1nc2c(s1)C(S(=O)(=O)Cc1ccccc1)Cc1c(OCC(=O)O)cccc1-2 (stereo unspecified) | 192 to 193
31 | CCCCCCCCNC(=O)[C@@H]1C[C@H]1c1ccc(NC(=O)/C=C\C(=O)O)cc1 (relative stereo) | 178 to 180
32 | O=c1[nH]c2ccc(C3=NOC(CCN4CCC(Cc5ccc(F)cc5)CC4)C3)cc2o1 (stereo unspecified) | 254 to 258
33 | Cc1oc2c(-c3ccc(F)cc3)c(-c3ccc(S(C)(=O)=O)cc3)nn2c1-c1ccccc1 | 234 to 236
34 | O=C(Nc1ccc(Oc2ccnc(N3CCCC3)n2)c2ccccc12)c1cc(F)cc(N2CCCCC2)c1 | 111 to 113
35 | N#Cc1cnn2c1N(C(=O)CN1CCN(C(=O)Nc3ccccc3)CC1)CC=C2c1cccc(C(F)(F)F)c1 | 184 to 187
36 | O=C(Cc1ccc(Cl)cc1Cl)N1CCN(c2cnccn2)CC1 | 124 to 125
37 | CCCCCCCCCCCCCCCCCCOc1cc(N)cc(NC(C)=O)c1 | 115 to 117
38 | CCCCCC(O)CNC (stereo unspecified) | 40 to 43
39 | CCCN(C1CCN(C)CC1)S(=O)(=O)c1ccc(Nc2nccc(Nc3ccc(F)cc3)n2)cc1 | 232
40 | CN(CCCc1ccccc1)[C@H]1CC[C@H](c2ccc([N+](=O)[O-])cc2)CC1 | 55 to 56
41 | C[C@@H]1N=C(c2ccccc2Cl)c2cc([N+](=O)[O-])ccc2NC1=O | 200 to 202
42 | CC(CO)N1CCN(c2ccccn2)CC1 (stereo unspecified) | 62 to 64
43 | CC(=S)NC(C(=O)NCc1ccccc1)c1ccco1 (stereo unspecified) | 78 to 80
44 | O=C(Nc1ccc(Cl)cn1)N[C@@H]1C[C@@H]1c1cccc([N+](=O)[O-])c1 (racemic) | 201 to 202
45 | O=S1c2ccccc2C(CCCl)(CCCl)c2ccccc21 | 126 to 127
46 | COC(=O)CCc1ccccc1CC1C2CCC(O2)C1c1nc(C(=O)CCCCCC2CCCCC2)co1 (stereo unspecified) | 170 to 171

The next lines start with the values.

Row | melting point [°C] | SMILES
47 | 159 to 161 | Cc1cc(NCCO)c2nn(-c3ccccc3)c(C)c2n1
48 | 210 to 212 | CC(C)c1ccc(S(=O)(=O)c2ccccc2)cc1S(=O)(=O)NC1CCN(C(=O)c2ccccc2F)CC1
49 | 68 to 69 | CC(=O)SC(CC(=O)c1ccc(Cl)cc1)C(=O)O (stereo unspecified)
50 | 121 to 127 | COc1cc(I)c(C(C)=NOCc2ccc([N+](=O)[O-])cc2)cc1O
51 | 115 to 123 | CCC12CCC3c4ccc(OC)cc4C(C)CC3C1CCC2=O (stereo unspecified)
52 | 140 to 142 | CCCNc1nc(OCC)nc2cscc12
53 | 152 | COc1cc(-c2nc3ccccc3n2Cc2ccccc2Br)cc(OC)c1OC
54 | 125 to 127 | Cn1ncc(C(=O)C2CC2)c1S(N)(=O)=O
55 | 134 to 135 | COC(=O)c1ccc(OC)c(Nc2cc(Cl)cc(Cl)c2)c1
56 | 171 to 173 | CS(=O)c1cc(C(C)(C)C)c(O)c(C(C)(C)C)c1 (stereo unspecified)
57 | 46 to 47 | C/C(=C\c1ccc(OCCN(C)C)cc1)c1ccc2c(c1)SCC(C)(C)CS2
58 | 28 to 30 | CCOC(=O)c1ccccc1-c1cc(-c2cccc(C(F)(F)F)c2)no1
59 | 108 to 112 | CCN(CC)CCN1CCN(Cc2ccc(O)cc2)C(c2ccccc2)C1 (stereo unspecified)
60 | 192 to 194 | Oc1cccc(-c2ccc3cc(O)ccc3c2)c1
61 | 96 to 97 | COc1ccc(NC(=O)OC(C)(C)C)c(C(=O)C2CC2)c1
62 | 120 to 122 | COC(=O)CCc1ccc(C(=O)O)cc1[N+](=O)[O-]
63 | 167 to 170 | CC(C)c1nc(CCOC(N)=O)n(Cc2ccccc2N)c1Sc1cc(Cl)cc(Cl)c1
64 | 188 | CCNC(=O)c1ccc(F)c(NC(=O)c2cc(C(C)(C)C)nn2CC)c1
65 | 198 to 200 | Cn1cc(C(=O)c2cnc[nH]2)cc1C(=O)c1ccc(Cl)cc1
66 | 209 to 210 | COC(=O)c1c(C)[nH]c(C)c1C1=CC(=O)c2ccccc2C1=O
67 | 138 to 140 | CC(C)(C)c1cc(CC2=NC(=S)SC2)cc(C(C)(C)C)c1O
68 | 211 | N#Cc1c(N2CCN(C(=O)c3ccco3)CC2)c2cc(F)cnc2n(Cc2cccc(F)c2)c1=O
69 | 111 to 113 | COc1nc(OC)c(C(C)C)c(C(=O)c2cc(C)cc(C=O)c2)n1
70 | 271 to 273 | CC(C)c1ccc(N(C)C(=O)Cn2cnc3[nH]c(=O)n(C)c(=O)c32)cc1
71 | 160 | CC(=O)Nc1ccc(C(F)(F)F)cc1C

Row | melting point [°C] | SMILES
72 | 92 to 93 | COc1ccc(COC(=O)c2ccc3ccccc3c2O)cc1
73 | 134 | N#CCOc1cccc2c1c1cccc(F)c1n2Cc1ccccc1
74 | > 350 | Cn1c(=O)[nH]c2c(C(N)=O)nc(-c3cccnc3)nc21
75 | 36 to 37 | Nc1c(S)ccc2ccccc12
76 | 151 to 152 | CCc1cc(CO)nn1-c1ccc([N+](=O)[O-])cc1
77 | 138 to 139 | Cc1oc(-c2ccccc2)nc1/C=C/c1ccc(Br)cc1
78 | 125 to 128 | Cc1c(-c2ccccc2)c(N2CC[C@H](N(C)C)C2)c2oc(N3CC(CC(=O)O)C3)nc2c1C#N
79 | 196 to 197 | CCc1nn(C2CCCCC2)c2cc(C(=O)O)ccc12
80 | 151 to 153 | CC(C)C1(C)C(=O)NC2(O)c3ncccc3C(=O)N21 (stereo unspecified)
81 | 271 to 273 | COc1cc(C#N)ccc1-c1cc(-c2cc(C#N)ccc2OC)on1
82 | 173 to 175 | CSc1nc(-c2ccncc2)n(-c2ccc(C(C)C)cc2)c(=O)c1C#N
83 | 72 to 75 | Cc1cc(SC#N)c(C(C)C)cc1O
84 | 137 to 138 | Cc1cccc(N2CCNC2=O)c1
85 | 156 to 157 | CC(C)CCN1C(=O)C(NC(=O)Nc2ccccc2)C(=O)N(CC23CC4CC(CC(C4)C2)C3)c2ccccc21 (stereo unspecified)
86 | 66 to 67 | Cc1cccc2c1CCN=C2c1ccc(Cl)cc1
87 | 52 to 53 | CCOC(=O)C(Cc1ccc(F)cc1)C(=O)c1ccc(C(F)(F)F)cc1 (stereo unspecified)
88 | 225 to 227 | CCOC(=O)c1cccc2nc(S)n(Cc3ccc(-c4ccccc4C#N)cc3)c12
89 | 118 to 120 | COc1ccc(F)cc1C(C)(C)CC(C)(O)Cc1cc2ccccc2[nH]1 (stereo unspecified)
90 | 120 to 121 | Cc1ccc(C(=O)Nc2ccc(CN3CCN(C)CC3)c(C(F)(F)F)c2)cc1C#Cc1ccc(NC2CCC2)nn1
91 | 199 to 201 | Cc1ccccc1CC(=NC#N)NC(NC(=O)Cc1ccc(C#N)cc1)C(C)(C)C (stereo unspecified)
92 | > 320 | COc1cc(C=Cc2nc3c([nH]2)c(=O)n(C)c(=O)n3C)cc(OC)c1
93 | 149 to 150 | CCOC(=O)COc1cc(C2COc3c(C)c(C)c(NC(=O)CC(C)(C)C)c(C)c32)ccc1C(C)C (stereo unspecified)
94 | 256 to 257 | CC(C)(C)OC(=O)Nc1cc(-c2nnc(CCc3cccc(C(F)(F)F)c3)o2)ccn1
95 | 164 to 166 | COc1cc(-c2nc(N(C)CCO)c3c(C)c(C#N)sc3n2)cc(OC)c1OC
96 | 145 | CCC(C)n1ncn(-c2ccc(N3CCN(c4ccc(OC)cc4)CC3)c(Br)c2)c1=O (stereo unspecified)
